Source: paper PMC7059204, “Gonadotropin-Releasing Hormone Receptor-Targeted Near-Infrared Fluorescence Probe for Specific Recognition and Localization of Peritoneal Metastases of Ovarian Cancer” (Frontiers in Oncology, 2020)

Key:
[1] = tested on: A2780 peritoneal metastases of ovarian cancer; type: in vivo, Balb/c nude mice
Excerpt: The xenograft model for metastatic ovarian cancer was previously described ([18]). Female Balb/c nude mice (5–6 weeks old) were intraperitoneally injected with 1 × 10^7 A2780 cells. Tumors were allowed to grow for 2–3 weeks. The Institutional Animal Care and Use Committee of Fudan University approved all protocols presented in these studies.
For ex vivo GnRHa-ICG and ICG (0, 1, 10, and 20 μmol/L) imaging, fluorescence signals were taken using the IVIS Lumina K imaging system (PerkinElmer) and the clinically used Fluorescence Navigation system (the FloNavi, Optomedic Technique Inc., Guangdong, China). For intraperitoneal metastasis imaging, 0.72 μmol/kg of GnRHa-ICG or ICG was injected intraperitoneally in mice. Mice were sacrificed at the indicated times (n = 3 per group), and the abdominal cavities were exposed. Fluorescence images were obtained using the IVIS Lumina K imaging system (PerkinElmer) with a 780 nm excitation filter and an 845 nm emission filter. For ex vivo imaging, xenografts and organs were immediately dissected and analyzed after sacrifice.
Fluorescence signals were quantified as the average radiant efficiency ([p/s/cm^2/sr]/[μW/cm^2]) using the Living Image software. The fluorescence intensity was measured by drawing a region of interest (ROI) around the area. The tumor-to-background ratio (TBR) was calculated as the average fluorescence intensity of the tumor divided by that of the skeletal muscle or intestine.

[2] = tested on: A2780 cells; experiment: Fluorescence microscopy cell binding of GnRHa-ICG / ICG; type: cell-based, human; conditions: 60 min, 37°C, confocal microscopy
Method: (§1) The cells were placed in an 8-well chamber slide (Ibidi) and grown to ~60% confluence. A2780, CAOV-3, ES-2, and HeyA8 cells were incubated with 100 μmol/L GnRHa-FITC, and A2780, OSE, and H1299 cells were incubated with 20 μmol/L GnRHa-ICG or ICG (Sigma-Aldrich) for 60 min at 37°C. After incubation, the cells were washed with PBS, fixed in 4% paraformaldehyde, labeled with WGA Alexa Fluor 594 conjugate or WGA Alexa Fluor 488 conjugate (Invitrogen), and mounted with DAPI. These samples were analyzed using TCS SP5 confocal microscopy (Leica). For quantitative analysis, the mean fluorescence intensity was calculated using ImageJ software (version 1.50 g).

[3] = tested on: OSE cells; experiment: as above; type: cell-based, human; conditions: 60 min, 37°C, confocal microscopy
Method: as §1

[4] = tested on: Balb/c nude mice; experiment: In vivo toxicity test; conditions: 1.5 mg/kg intraperitoneal, n = 4
Method: The toxicity of GnRHa-ICG was determined in Balb/c nude mice (n = 4). Two groups received intraperitoneal injections of 1.5 mg/kg GnRHa-ICG and were followed for 2 and 96 h. The control group received vehicle alone. Blood draws were done to assess alanine transaminase (ALT), aspartate transaminase (AST), blood urea nitrogen (BUN), creatinine (CREA), white blood cells (WBC), and red blood cells (RBC). Tissues of the heart, lung, liver, spleen and kidney were harvested for HE staining.

[5] = tested on: A2780 and OSE cells (GnRHR-positive); experiment: Flow cytometry blocking experiment with unlabeled GnRHa peptide; type: cell-based, human; conditions: pretreated with 100 μmol/L GnRHa peptide 10 min, then 2 μmol/L GnRHa-ICG 30 min, 37°C, triplicate
Method: A2780 and OSE cells were placed in 6-well plates, grown to ~70% confluence, and then incubated with GnRHa-FITC (20 μmol/L) or GnRHa-ICG/ICG (10 μmol/L) for 30 min at 37°C. For the blocking experiments, cells were pretreated with 100 μmol/L GnRHa peptide for 10 min and then incubated with 2 μmol/L GnRHa-ICG for 30 min at 37°C. Samples were measured on a CytoFLEX flow cytometer (Beckman Coulter) or a FACSAria flow cytometer (BD Biosciences). All samples were examined in triplicate. Data were analyzed using FlowJo software (version X 10.0.7).

[6] = tested on: A2780 cells; experiment: Cell viability assay (Cell Counting Kit-8); type: cell-based, human; conditions: 0, 1, 10, 100 μmol/L, 48 h exposure, CCK-8, 4 sub-wells
Method: A2780 cells were seeded in 96-well plate and grown to ~40% confluence. Cells were incubated with GnRHa-ICG at different concentrations: 0, 1, 10, and 100 μmol/L. Each group had 4 sub-wells. After exposure for 48 h, cell viabilities were assessed by Cell Counting Kit-8 assay (Dojindo). The absorbance at 450 nm (reference wavelength: 630 nm) was measured with a microplate reader.

[7] = 2 h post administration, 0.72 μmol/kg intraperitoneal, IVIS Lumina K, ex 780/em 845 nm, mean ± SD, n = 3 per group
[8] = 20 μmol/L, mean fluorescence intensity by ImageJ

In the case of `CC1(C)C(/C=C/C=C/C=C/C=C2\N(CCCCS(=O)(=O)O)c3ccc4ccccc4c3C2(C)C)=[N+](CCCCS(=O)(=O)[O-])c2ccc3ccccc3c21` [ICG, Indocyanine green, reference compound], the tumor-to-intestine ratio [1, 7] is reported as 0.57 ± 0.06, the tumor-to-muscle ratio [1, 7] is reported as 4.60 ± 0.50 and the “course of tumor fluorescence intensity” value ([1]; mouse, in vivo) is reported as “decreased quickly within 48 h”. The “fluorescence in control (normal, non-tumor) mice” value ([1]; mouse, in vivo, ip) was “high fluorescence signals”, the “fluorescence signal, times lower than with incubation of GnRHa-ICG” value ([2]; 20 μM each) was 2.61 times and the “fluorescence signal, times lower than with incubation of GnRHa-ICG” value ([3]; 20 μM each) was 2.25 times.

In the case of “D-2-Nal-D-4-Cl-Phe-D-3-Pal-Ser-Tyr-D-Cit-Leu-Arg-Pro-D-Ala-NH2 [GnRHa-ICG]”, the “ALT, AST, CREA, WBC and RBC, control versus test groups” value ([4]; 2 and 96 h) is reported as “no significant difference”, the BUN ([4]; 96 h after injection) is reported as “slight decrease” and the “histological observation of main organs (heart, lung, liver, spleen, kidney; HE staining)” value [4] is reported as “did not present any obvious damage”. The “course of tumor-to-background ratio (TBR) over time” value ([1]; between 2 and 48 h, intraperitoneal) was “stable”, the “ex vivo imaging of the brain (binding to hypothalamic GnRHR)” value ([1]; mouse, in vivo) was “did not show fluorescence signals” and the “fluorescence in benign retroperitoneal lymph nodes versus tumor” value ([1]; mouse, in vivo) was “fewer fluorescence signals”. For the same molecule, the “fluorescence in control (normal, non-tumor) mice” value ([1]; mouse, in vivo, ip) was “did not show fluorescence signals”, the “time at which fluorescence signal of A2780 xenografts peaked in intensity” value ([1]; mouse, in vivo, ip) was 2 h and the “time for which tumor fluorescence intensities were maintained” value ([1]; mouse, in vivo, ip) was “up to 48 h”. The “time of highest fluorescence density in the liver” value ([1]; mouse, in vivo, ip) was 24 h, the “effect of competition with unlabeled GnRHa on fluorescence intensity” value [5] was “partial reduction in fluorescence intensity” and the “fluorescence intensity, fold higher than in H1299 cells (GnRHR-negative)” value [2, 8] was 1.56 fold. The “fluorescence intensity, fold higher than in H1299 cells (GnRHR-negative)” value [3, 8] was 1.34 fold and the “cell viability after exposure (tumorigenic potential)” value [6] was “does not increase cell viability”.
